From patent US20260159525A1, “TRICYCLIC HETEROCYCLES” (Merck Patent GmbH, priority 2021, published 2026) come the findings set out here.

Common to all, as to assay type: cell-based
In one experiment the test system is NCI-H226 cells. Nature of the experiment: Viability assay in NCI-H226 (Yap-dependent) cells, CyQUANT. The conditions noted are these: Homo sapiens, NCI-H226 YAP dependent cell line, 96 hour incubation, group symbols. In outline: (§1)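 Cells were seeded 24 h before dosing, then given a 10-point, 1:3 compound series from 30 μM final (0.3% DMSO) in duplicate. After 96 h at 37 °C, viability was read by CyQUANT DNA-dye fluorescence.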

A further experiment concerns SW620 Yap KO cells. Nature of the experiment: Viability assay in SW620 Yap KO (Yap independent) cells, CyQUANT. As to conditions: Homo sapiens, SW-620, SW620 YAP and TAZ knocked out (YAP independent), 96 hour incubation. In outline:
as §1

For a further experiment, the system named is YAP-TEAD interaction. Nature of the experiment: SK-HEP-1 reporter assay (8x TEAD responsive elements driving NanoLuc luciferase). The conditions noted are these: Homo sapiens, SK-HEP1, SK-HEP-1 cells, 24 hour incubation. In outline: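 SK-HEP-1 cells carrying a stably integrated 8× TEAD-element NanoLuc reporter, seeded 24 h before dosing, were treated in duplicate with a 10-point dose series (top 30 μM final, 0.3% DMSO) for 24 h at 37°C, 5% CO2. Luciferase activity read by NanoGlo luminescence; IC50 derived from it.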

Where [1] appears, read: n.d. (x) = not detectable below threshold x.
[2] abbreviates: number, or n.d. (x) = not detectable below threshold x.

Take `Cn1cc2c3cc(C(=O)O)sc3n(-c3ccc(C(F)F)cc3)c2n1` [Compound 99, 7-[4-(difluoromethyl)phenyl]-4-methyl-9-thia-4,5,7-triazatricyclo[6.3.0.0^2,6]undeca-1(8),2,5,10-tetraene-10-carboxylic acid]: the figures for the IC50 in the experiment with NCI-H226 cells, in the experiment with SW620 Yap KO cells (setting [1]) and in the experiment with YAP-TEAD interaction (group symbols) were 100 to 1000 nM, > 30000 nM and 100 to 10000 nM, respectively.
The matching figures for `CNC(=O)c1cc2c3nn(C)nc3n(-c3ccc(C(F)(F)F)cc3)c2s1` [Compound 102, N,4-dimethyl-7-[4-(trifluoromethyl)phenyl]-9-thia-3,4,5,7-tetraazatricyclo[6.3.0.0^2,6]undeca-1(8),2,5,10-tetraene-10-carboxamide]: 1 to 100 nM, > 30000 nM and 10 to 100 nM.
The corresponding values for `Cn1ccc(C(CO)NC(=O)c2cc3c4cn(C)nc4n(-c4ccc(C(F)(F)F)cc4)c3s2)n1` (stereo not drawn) [Compound 96, N-[2-hydroxy-1-(1-methyl-1H-pyrazol-3-yl)ethyl]-4-methyl-7-[4-(trifluoromethyl)phenyl]-9-thia-4,5,7-triazatricyclo[6.3.0.0^2,6]undeca-1(8),2,5,10-tetraene-10-carboxamide] are 1 to 100 nM, > 30000 nM and 10 to 100 nM.
As for `Cn1cc2c3cc(C(=O)NCc4ccccn4)sc3n(-c3ccc(C(F)(F)F)cc3)c2n1` [Compound 66, 4-methyl-N-[(pyridin-2-yl)methyl]-7-[4-(trifluoromethyl)phenyl]-9-thia-4,5,7-triazatricyclo[6.3.0.0^2,6]undeca-1(8),2,5,10-tetraene-10-carboxamide], the IC50 is 1 to 100 nM with NCI-H226 cells, > 3000 nM in the experiment with SW620 Yap KO cells (setting [1]) and > 9500 nM with YAP-TEAD interaction (setting [2]).
Regarding `Cn1cc2c3cc(C(=O)N[C@@H](CO)c4ccccn4)sc3n(-c3ccc(OC(F)(F)F)cn3)c2n1` [Compound 125, N-[(1R)-2-hydroxy-1-(pyridin-2-yl)ethyl]-4-methyl-7-[5-(trifluoromethoxy)pyridin-2-yl]-9-thia-4,5,7-triazatricyclo[6.3.0.0^2,6]undeca-1(8),2,5,10-tetraene-10-carboxamide], the IC50 with NCI-H226 cells is 1 to 100 nM; in the experiment on SW620 Yap KO cells (setting [1]), > 30000 nM; in the experiment on YAP-TEAD interaction (group symbols) it was 100 to 10000 nM.
Consider `Cn1cc2c3cc(C(=O)NCc4ccncc4)sc3n(-c3ccc(C(F)(F)F)cc3)c2n1` [Compound 31, 4-methyl-N-[(pyridin-4-yl)methyl]-7-[4-(trifluoromethyl)phenyl]-9-thia-4,5,7-triazatricyclo[6.3.0.0^2,6]undeca-1(8),2,5,10-tetraene-10-carboxamide], for which the IC50 with NCI-H226 cells was 1 to 100 nM; in the experiment on SW620 Yap KO cells (setting [1]), > 3200 nM; with YAP-TEAD interaction (group symbols), > 10000 nM.
For the molecule `CNC(=O)c1cc2c3cn(C)nc3n(-c3ccc(C(F)(F)F)cn3)c2s1` [Compound 47, N,4-dimethyl-7-[5-(trifluoromethyl)pyridin-2-yl]-9-thia-4,5,7-triazatricyclo[6.3.0.0^2,6]undeca-1(8),2,5,10-tetraene-10-carboxamide], the IC50 in the experiment with NCI-H226 cells fell in the range of 1 to 100 nM; in the experiment with SW620 Yap KO cells (group symbols) it was 1000 to 10000 nM; in the experiment with YAP-TEAD interaction (group symbols) it was 10 to 100 nM.
Regarding `C[C@@H](O)CNC(=O)c1cc2c3cn(C)nc3n(-c3ccc(C(F)(F)F)cc3)c2s1` [Compound 44, N-[(2R)-2-hydroxypropyl]-4-methyl-7-[4-(trifluoromethyl)phenyl]-9-thia-4,5,7-triazatricyclo[6.3.0.0^2,6]undeca-1(8),2,5,10-tetraene-10-carboxamide], the IC50 was 1 to 100 nM in the experiment on NCI-H226 cells, > 3000 nM in the experiment with SW620 Yap KO cells (setting [1]) and > 9500 nM with YAP-TEAD interaction (setting [2]).
On to `Cn1cc2c3cc(C(=O)O)sc3n(-c3ccc(C(F)F)cn3)c2n1` [Compound 117, 7-[5-(difluoromethyl)pyridin-2-yl]-4-methyl-9-thia-4,5,7-triazatricyclo[6.3.0.0^2,6]undeca-1(8),2,5,10-tetraene-10-carboxylic acid], for which the figures for the IC50 with NCI-H226 cells, with SW620 Yap KO cells (setting [1]) and in the experiment with YAP-TEAD interaction (group symbols) were 1000 to 10000 nM, > 30000 nM and 100 to 10000 nM, respectively.
The matching figures for `Cc1nc2c3sc(C(=O)O)cc3n(-c3ccc(OC(F)(F)F)cc3)c2s1` [Compound 25, 4-methyl-7-[4-(trifluoromethoxy)phenyl]-5,11-dithia-3,7-diazatricyclo[6.3.0.0^2,6]undeca-1(8),2(6),3,9-tetraene-10-carboxylic acid]: 100 to 1000 nM, > 30000 nM and 10 to 100 nM.
Turning to `Cn1cc2c3cc(C(=O)N[C@@H](CCO)c4cncs4)sc3n(-c3ccc(C(F)(F)F)cc3)c2n1` (single isomer, unassigned) [Compound 41], the IC50 in the experiment with NCI-H226 cells was 100 to 1000 nM; in the experiment on SW620 Yap KO cells (setting [1]), > 3000 nM; with YAP-TEAD interaction (group symbols), 100 to 10000 nM.
`CNC(=O)c1cc2c3cn(C)nc3n(-c3ccc(OC(F)F)cn3)c2s1` [Compound 121, 7-[5-(difluoromethoxy)pyridin-2-yl]-N,4-dimethyl-9-thia-4,5,7-triazatricyclo[6.3.0.0^2,6]undeca-1(8),2,5,10-tetraene-10-carboxamide]: the IC50 with NCI-H226 cells is 1 to 100 nM; in the experiment with SW620 Yap KO cells (setting [1]) it was > 30000 nM; in the experiment on YAP-TEAD interaction (setting [2]), > 30000 nM.
Consider `CNC(=O)c1cc2c3cn(C)nc3n(-c3ccc(OC(F)(F)F)cn3)c2s1` [Compound 124, N,4-dimethyl-7-[5-(trifluoromethoxy)pyridin-2-yl]-9-thia-4,5,7-triazatricyclo[6.3.0.0^2,6]undeca-1(8),2,5,10-tetraene-10-carboxamide], for which the half-inhibitory concentration (IC50) in the experiment with NCI-H226 cells was 1 to 100 nM; in the experiment on SW620 Yap KO cells (setting [1]) it was > 3000 nM; in the experiment with YAP-TEAD interaction (group symbols), 100 to 10000 nM.
For the molecule `C[C@H](CO)NC(=O)c1cc2c3cn(C)nc3n(-c3ccc(C(F)(F)F)cn3)c2s1` [Compound 48, N-[(2R)-1-hydroxypropan-2-yl]-4-methyl-7-[5-(trifluoromethyl)pyridin-2-yl]-9-thia-4,5,7-triazatricyclo[6.3.0.0^2,6]undeca-1(8),2,5,10-tetraene-10-carboxamide], the values for the IC50 in the experiment with NCI-H226 cells, in the experiment with SW620 Yap KO cells (group symbols) and with YAP-TEAD interaction (setting [2]) were 1 to 100 nM, 10000 to 30000 nM and > 30000 nM, respectively.
Consider `CC[C@@H](CO)NC(=O)c1cc2c3cn(C)nc3n(-c3ccc(C(F)(F)F)cc3)c2s1` [Compound 92, N-[(2S)-1-hydroxybutan-2-yl]-4-methyl-7-[4-(trifluoromethyl)phenyl]-9-thia-4,5,7-triazatricyclo[6.3.0.0^2,6]undeca-1(8),2,5,10-tetraene-10-carboxamide], for which the IC50 was 100 to 1000 nM in the experiment on NCI-H226 cells, > 3000 nM in the experiment on SW620 Yap KO cells (setting [1]) and > 30000 nM in the experiment on YAP-TEAD interaction (setting [2]).
As to `Cn1cc2c3cc(C(=O)N4CC[C@H](O)C4)sc3n(-c3ccc(C(F)F)cc3)c2n1` [Compound 105, (3S)-1-{7-[4-(difluoromethyl)phenyl]-4-methyl-9-thia-4,5,7-triazatricyclo[6.3.0.0^2,6]undeca-1(8),2,5,10-tetraene-10-carbonyl}pyrrolidin-3-ol], the figures for the IC50 in the experiment with NCI-H226 cells, in the experiment on SW620 Yap KO cells (setting [1]) and in the experiment on YAP-TEAD interaction (group symbols) were 100 to 1000 nM, > 30000 nM and 10 to 100 nM, respectively.

One may read the IC50 as the concentration needed to halve the response being measured.
